Measured values from patent US11944605B2, “Rapamycin analogs and uses thereof” (Janssen Pharmaceutica NV, priority 2018, dated 2024).
Values after ≈ are worked out from the molar mass of the structure shown. “Also recorded” adds a separate entry of the source. Like-named read-outs stand apart in the source and are kept apart here.

Columns and labels:
[1] = tested on: mTORC1 pathway (pS6K1 T389) in PC3 cells; test: Western blot, mTORC1 pathway (pS6K1) in PC3 cells; format: cell-based; details: PC3 cells
Experimental: (§1) Western Blot Based pS6K1 and pAKT Assay at 24 and 48 Hour Timepoints
(§2) 1. Seed six well plate with 500,000 PC3 cells per well and incubate for 20˜24 hour.
(§3) 2. Add compounds into the cell plate. Incubate for 24 to 48 hours.
(§4) 4. Plate is placed on ice and the media is removed via aspiration. The wells are washed with 1 mL of 1× PBS and then fully aspirated.
(§5) 5. 110 μL of 1% Triton Lysis Buffer is added and each well is scraped vigorously.
(§6) 6. Cell homogenates are transferred to 1.5 mL eppendorf tubes on ice and spun down at 4° C. for 10 minutes at 10,000 rpm.
(§7) 9. The membranes were washed 3× with TBS-T with a 5 minute incubation between each wash then incubated with secondary antibody (LiCor IRDye 800 Donkey Anti Rabbit) for at least 30 minutes.
(§8) 10. The membranes were washed 3× with TBS-T with a 5 minute incubation between each wash.
(§9) 11. The gels were then incubated for 5 minutes with PBS at room temperature then imaged using a Li-Cor.
(§10) The methods employed were substantially similar to those described above. Compounds were evaluated in PC3 cells, Jurkat cells, wild-type mouse embryotic fibroblast (MEF) cells, tuberous sclerosis 2 (TSC2) negative (TSC −/−) MEF cells, and tuberous sclerosis 2 (TSC2) positive (TSC +/+) MEF cells. Cells were incubated with compounds of the present invention for various time periods (e.g., 5 minutes, 15 minutes, 30 minutes, 90 minutes, 24 hours, or 48 hours), and evaluated according to known methodologies, such as those herein described.

[2] = tested on: mTORC2 pathway (Akt phosphorylation) in PC3 cells; test: Western blot, mTORC2 pathway (pAkt) in PC3 cells; format: cell-based; details: 24 hours
Experimental: as §1, §2, §3, §4, §5, §6, §7, §8, §9, §10

[3] = tested on: 4E-BP1 phosphorylation in PC3 cells; test: Western blot, 4E-BP1 phosphorylation in PC3 cells; format: cell-based; details: 24 hours
[4] = tested on: mTORC1 pathway in Jurkat cells; test: Western blot, mTORC1 pathway in Jurkat cells; format: cell-based; details: 24 hrs
Experimental: as §10

[5] = tested on: mTORC1 pathway in tuberous sclerosis (TSC2) negative (TSC−/−) MEF cells; test: Western blot, mTORC1 pathway in TSC−/− MEF cells; format: cell-based, mouse
Experimental: as §10

[6] = tested on: mTORC1 pathway in tuberous sclerosis 2 (TSC2) positive (TSC+/+) MEF cells; test: Western blot, mTORC1 pathway in TSC+/+ MEF cells; format: cell-based, mouse
Experimental: as §10

[7] = tested on: 4E-BP1 phosphorylation in TSC+/+ MEF cells; test: Western blot, 4E-BP1 phosphorylation in TSC+/+ MEF cells; format: cell-based, mouse; details: 24 hours
Experimental: as §10

[8] = tested on: mTORC1 pathway in wild-type MEF cells; test: Western blot, mTORC1 pathway in wild-type MEF cells; format: cell-based, mouse
Experimental: as §10

IFN-γ production = IFN-γ production in allogenic mixed lymphocyte reaction; format: cell-based; details: for IC50: read-out: IFN-γ Inhibition IC50s
Experimental: Assessment of Effect on IFN-γ Production in Allogenic Mixed Lymphocyte Reaction
The effect of rapamycin, everolimus, I-29, and I-117 on IFN-y production was evaluated in an allogenic mixed lymphocyte reaction (E.g., Eleftheriadis, T. et al., Int. J. Mol. Med., 37(5): 1412-20 (2016) https://doi.org/10.3892/ijmm.2016.2547).

[9] = tested on: pS6K1 (p-p70 S6 Kinase (Thr389)) in MCF-7 cells; test: AlphaLISA Ultra pS6K1 Assay; format: cell-based; details: Homo sapiens, 1.5 h; MCF7 cells, 90 min
Method in brief: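 AlphaLISA Ultra read-out (acceptor beads 2 h, then donor beads 2 h) on thawed lysates of MCF-7 cells. Cells had 20–24 h after seeding and a 2 h medium change, then 90 min of compound exposure at 0.5% final DMSO, with lysates stored at −80 °C.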

[10] = tested on: pAKT (p-Akt 1/2/3 (Ser473)) in MCF-7 cells; test: AlphaLISA Ultra pAKT Assay; format: cell-based; details: Homo sapiens, 1.5 h; MCF7 cells, 90 min
mTORC1 over mTORC2 = test: mTORC1 selectivity over mTORC2 at 24 hrs (Western blot based pS6K1 and pAKT assay); format: cell-based; details: 24 hrs
[11] = Solubility in 100 mM phosphate buffer (pH 7.4); format: physicochemical; details: pH 7.4, aqueous buffer
Description: The compound numbers correspond to the compound numbers in Table 1.

[12] = tested on: mTORC2 (Akt phosphorylation) in TSC+/+ MEF cells; test: Western blot, mTORC2 pathway (pAkt) in TSC+/+ MEF cells; format: cell-based, mouse
Experimental: as §10

[13] = Pharmacokinetic properties in C57Bl/6 mice; format: in vivo; details: mouse, plasma; for half-life: read-out: Terminal T1/2 (converted)
Experimental: Pharmacokinetic Properties
The pharmacokinetic properties of compounds of the present invention were evaluated in C57Bl/6 mice and compared with rapamycin. Animals were fasted overnight prior to administration of I-29 or rapamycin (1 mg/kg IV, 10 mg/kg PO, or 2 mg/kg IP). Animals were bled at time intervals for up to 48 hours following administration of compounds. Whole blood from each mouse was indivisually collected in polypropylene tubes and immediately centrifuged. Alloquates of the separated plasma were promptly prepared for HPCL analysis.

[14] = tested on: mTORC2 (Akt phosphorylation) in wild-type MEF cells; test: Western blot, mTORC2 pathway (pAkt) in wild-type MEF cells; format: cell-based, mouse; details: 24 hours
Experimental: as §10

| IC50 (IFN-γ production) [nM] | IC50 [9] [nM] | Structure (SMILES) | inhibition of the mTORC1 pathway ([1]; 24 hours) | inhibition of mTORC2 (Akt phosphorylation) [2] | inhibition of 4E-BP1 phosphorylation [3] | inhibition of the mTORC1 pathway ([5]; 24 hours) | inhibition of the mTORC1 pathway ([6]; 90 minutes) | inhibition of the mTORC1 pathway ([6]; 24 hours) | inhibition of 4E-BP1 phosphorylation [7] | inhibition of the mTORC1 pathway ([8]; 24 hours) | mTORC1 selective @ 24 hrs (mTORC1 over mTORC2) | inhibition of mTORC2 (Akt phosphorylation) ([12]; 24 hours) | inhibition of mTORC2 (Akt phosphorylation) [14] | other results |
| --- | --- | --- | --- | --- | --- | --- | --- | --- | --- | --- | --- | --- | --- | --- |
| 15.2 | – | CO[C@H]1C[C@@H]2CC[C@@H](C)[C@@](O)(O2)C(=O)C(=O)N2CCCC[C@H]2C(=O)O[C@H]([C@H](C)C[C@@H]2CC[C@@H](OCCO)[C@H](OC)C2)CC(=O)[C@H](C)/C=C(\C)[C@@H](O)[C@@H](OC)C(=O)[C@H](C)C[C@H](C)/C=C/C=C/C=C/1C [Everolimus, everolimus, reference compound] | strong inhibition | dose dependent inhibition | no inhibition | strong inhibition | strong inhibition | strong inhibition | no inhibition | strong inhibition | – | – | – | inhibition of the mTORC1 pathway ([1]; 90 minutes): strong inhibition; inhibition of the mTORC1 pathway [4]: strong inhibition; inhibition of the mTORC1 pathway ([5]; 90 minutes): strong inhibition; inhibition of the mTORC1 pathway ([8]; 90 minutes): strong inhibition; inhibition of IFN-γ production (IFN-γ production): significantly inhibited |
| – | 0.1 to 1 | COCCOCCOC1C[C@@H]2CC[C@@H](C)[C@@](O)(O2)C(=O)C(=O)N2CCCC[C@H]2C(=O)O[C@H]([C@H](C)C[C@@H]2CC[C@@H](OCCO)[C@H](OC)C2)CC(=O)[C@H](C)/C=C(\C)[C@@H](O)[C@@H](OC)C(=O)[C@H](C)C[C@H](C)/C=C/C=C/C=C/1C (stereo partly shown) [I-2] | strong inhibition | do not inhibit | no inhibition | strong inhibition | – | moderate concentration dependent inhibition | – | – | YES | do not inhibit | – | IC50 [10]: ≥ 100 nM; solubility [11]: 30 to 60 µM (≈ 31.4 to 62.8 µg/mL) |
| > 3000 | – | CO[C@@H]1C[C@H](C[C@@H](C)[C@@H]2CC(=O)[C@H](C)/C=C(\C)[C@@H](O)[C@@H](OC)C(=O)[C@H](C)C[C@H](C)/C=C/C=C/C=C(\C)[C@@H](OCCOCCOCCO)C[C@@H]3CC[C@@H](C)[C@@](O)(O3)C(=O)C(=O)N3CCCC[C@H]3C(=O)O2)CC[C@H]1O [I-29] | – | – | – | – | – | – | – | – | – | – | – | AUC(0-inf) ([13]; 1 mg/kg IV): 18400 ng·h/mL; AUC(0-t) ([13]; 1 mg/kg IV): 17600 ng·h/mL; MRT inf ([13]; 1 mg/kg IV): 15.9 h; clearance ([13]; 1 mg/kg IV): 0.9 mL/min/kg; half-life ([13]; 1 mg/kg IV): 14.7 h; Vd ([13]; 1 mg/kg IV, read-out: Vss): 0.863 L/kg; AUC(0-inf) ([13]; 2 mg/kg IP): 16900 ng·h/mL; AUC(0-t) ([13]; 2 mg/kg IP): 16600 ng·h/mL; Cmax ([13]; 2 mg/kg IP): 2590 ng/mL; Tmax ([13]; 2 mg/kg IP): 0.25 h; half-life ([13]; 2 mg/kg IP): 12.6 h; AUC(0-inf) ([13]; 10 mg/kg PO): 31700 ng·h/mL; AUC(0-t) ([13]; 10 mg/kg PO): 31200 ng·h/mL; Cmax ([13]; 10 mg/kg PO): 3290 ng/mL; Tmax ([13]; 10 mg/kg PO): 0.25 h; half-life ([13]; 10 mg/kg PO): 11 h |
| – | < 0.1 | COCCOCCO[C@H]1C[C@@H]2CC[C@@H](C)[C@@](O)(O2)C(=O)C(=O)N2CCCC[C@H]2C(=O)O[C@H]([C@H](C)C[C@@H]2CC[C@@H](OCCO)[C@H](OC)C2)CC(=O)[C@H](C)/C=C(\C)[C@@H](O)[C@@H](OC)C(=O)[C@H](C)C[C@H](C)/C=C/C=C/C=C/1C [I-105, (22E,24E,26E,27E,35R,36S,37R,38R,40S,42S,44S,45S,46R,47R,56R)-46, 56-dihydroxy-45-[(1R)-2-[(1S,3R, 4R)-4-(2-hydroxyethoxy)-3-methoxy-cyclohexyl]-1-methyl-ethyl]-47-methoxy-44-[2-(2-methoxyethoxy)ethoxy]-35,36,37,38,48,49-hexamethyl-66, 67-dioxa-57-azatricyclohexatriaconta-22,24,26(48),27(49)-tetraene-50, 51,52,53,54-pentone] | – | – | – | – | strong inhibition | strong inhibition | no inhibition | moderate inhibition; also recorded: strong inhibition | YES | do not inhibit | do not inhibit | inhibition of mTORC2 (Akt phosphorylation) ([12]; 90 minutes): does not inhibit |
| – | 0.1 to 1 | CO[C@@H]1C[C@H](C[C@@H](C)[C@@H]2CC(=O)[C@H](C)/C=C(\C)[C@@H](O)[C@@H](OC)C(=O)[C@H](C)C[C@H](C)/C=C/C=C/C=C(\C)[C@@H](OCCOCCOCCOCCO)C[C@@H]3CC[C@@H](C)[C@@](O)(O3)C(=O)C(=O)N3CCCC[C@H]3C(=O)O2)CC[C@H]1OCCO [I-115, (21E,23E,25E,26E,38R,39S,40R,41R,43S,45S,47S,48S,49R,50R,59R)-49, 59-dihydroxy-47-[2-[2-[2-(2-hydroxyethoxy)ethoxy]ethoxy]ethoxy]-48-[(1R)-2-[(1S,3R, 4R)-4-(2-hydroxyethoxy)-3-methoxy-cyclohexyl]-1-methyl-ethyl]-50-methoxy-38,39,40,41,51,52-hexamethyl-70, 71-dioxa-60-azatricyclohexatriaconta-21,23,25(51),26(52)-tetraene-53, 54,55,56,57-pentone] | strong inhibition | does not inhibit | – | – | – | moderate concentration dependent inhibition | – | moderate concentration dependent inhibition | YES | does not inhibit | does not inhibit | – |
